Measurements reported in publication PMC11087268, “A folate inhibitor exploits metabolic differences in Pseudomonas aeruginosa for narrow-spectrum targeting” (Nature Microbiology, 2024).

Key:
[1] = test system: P. aeruginosa PA14; assay: Growth of P. aeruginosa PA14 in TMI-supplemented media with fluorofolin; type: cell-based, Pseudomonas aeruginosa; conditions: for OD600 of P. Aeruginosa PA14: Fluorofolin
[2] = test system: Klebsiella pneumoniae ATCC 438165; assay: MIC against K. pneumoniae in LB broth; type: cell-based; conditions: ATCC438165, 16 h, 37 °C, OD600
Protocol: (§1) Overnight cultures were diluted 1:150 in LB broth and added to a 96-well plate. Antibiotics were serially diluted 1:2 and added to columns of the 96-well plate and grown at 37 °C with continuous shaking. Cell growth was measured using optical density at 600 nm (OD600). MIC assays were performed in either BioTek Synergy HT or Tecan InfiniteM200 Pro microplate readers.

[3] = test system: Pseudomonas aeruginosa PA01; assay: MIC against P. aeruginosa PA01 in LB broth; type: cell-based; conditions: 16 h, 37 °C, OD600
Protocol: as §1

[4] = test system: P. aeruginosa PA14 mexA transposon mutant; assay: microbe, parasite or virus in culture; type: cell-based; conditions: Pseudomonas aeruginosa
Protocol: as §1
(§2) P. aeruginosa PA14 transposon mutants were generated by the Ausubel Lab (https://pa14.mgh.harvard.edu/cgi-bin/pa14/home.cgi)[67]. The MICs of fluorofolin and TMP against strains with disrupted MexA, MexB and OprM were determined as above and compared to the parental strain. As transposon mutants in MexB were represented twice in this collection, the MIC was confirmed across both mutant strains.

[5] = test system: P. aeruginosa PA14 oprM transposon mutant; assay: microbe, parasite or virus in culture; type: cell-based; conditions: Pseudomonas aeruginosa
Protocol: as §1, §2

[6] = test system: P. aeruginosa PA14 mexB transposon mutant; assay: microbe, parasite or virus in culture; type: cell-based; conditions: Pseudomonas aeruginosa
Protocol: as §1, §2

[7] = test system: P. aeruginosa PA14 mexS L46F mutant; assay: MIC against fluorofolin-resistant PA14 mexS L46F mutant; type: cell-based; conditions: Pseudomonas aeruginosa
Protocol: as §1
Single colonies were picked and inoculated into fresh LB broth. This process was repeated for a total of ten passages. At each passage, the MIC was recalculated and compared to a culture that had not been previously exposed to fluorofolin, which was also grown as a control to confirm antibiotic potency. Cells from each passage were stored as a frozen stock.

## Nc1nc(N)c2c(ccc3c2ccn3Cc2ccnc(F)c2)n1 [fluorofolin]
[1]; Time 85.415 min
  OD600 of P. Aeruginosa PA14: 0.00495
[1]; Time 96.0917 min
  OD600 of P. Aeruginosa PA14: 0.00565
[1]; Time 106.768 min
  OD600 of P. Aeruginosa PA14: 0.006
[1]; Time 117.445 min
  OD600 of P. Aeruginosa PA14: 0.0073
[1]; Time 128.123 min
  OD600 of P. Aeruginosa PA14: 0.0085
[1]; Time 138.8 min
  OD600 of P. Aeruginosa PA14: 0.00865
[1]; Time 149.477 min
  OD600 of P. Aeruginosa PA14: 0.0096
[1]; Time 160.153 min
  OD600 of P. Aeruginosa PA14: 0.01045
[1]; Time 170.83 min
  OD600 of P. Aeruginosa PA14: 0.01095
[1]; Time 181.507 min
  OD600 of P. Aeruginosa PA14: 0.01175
[1]; Time 192.183 min
  OD600 of P. Aeruginosa PA14: 0.0127
[1]; Time 202.86 min
  OD600 of P. Aeruginosa PA14: 0.0136
[1]; Time 213.537 min
  OD600 of P. Aeruginosa PA14: 0.01395
[1]; Time 224.213 min
  OD600 of P. Aeruginosa PA14: 0.01515
[1]; Time 234.89 min
  OD600 of P. Aeruginosa PA14: 0.01575
[1]; Time 245.567 min
  OD600 of P. Aeruginosa PA14: 0.0166
[1]; Time 256.243 min
  OD600 of P. Aeruginosa PA14: 0.0165
[1]; Time 266.922 min
  OD600 of P. Aeruginosa PA14: 0.01705
[1]; Time 277.598 min
  OD600 of P. Aeruginosa PA14: 0.01815
[1]; Time 288.275 min
  OD600 of P. Aeruginosa PA14: 0.01805
[1]; Time 298.952 min
  OD600 of P. Aeruginosa PA14: 0.0199
[1]; Time 309.628 min
  OD600 of P. Aeruginosa PA14: 0.0191
[1]; Time 320.305 min
  OD600 of P. Aeruginosa PA14: 0.0205
[1]; Time 330.982 min
  OD600 of P. Aeruginosa PA14: 0.01975
[1]; Time 341.658 min
  OD600 of P. Aeruginosa PA14: 0.0208
[1]; Time 352.335 min
  OD600 of P. Aeruginosa PA14: 0.0206
[1]; Time 363.012 min
  OD600 of P. Aeruginosa PA14: 0.02055
[1]; Time 373.688 min
  OD600 of P. Aeruginosa PA14: 0.0208
[1]; Time 384.365 min
  OD600 of P. Aeruginosa PA14: 0.02105
[1]; Time 395.042 min
  OD600 of P. Aeruginosa PA14: 0.02085
[1]; Time 405.718 min
  OD600 of P. Aeruginosa PA14: 0.02185
[1]; Time 416.395 min
  OD600 of P. Aeruginosa PA14: 0.02155
[1]; Time 427.072 min
  OD600 of P. Aeruginosa PA14: 0.02275
[1]; Time 437.748 min
  OD600 of P. Aeruginosa PA14: 0.02165
[1]; Time 448.425 min
  OD600 of P. Aeruginosa PA14: 0.0225
[1]; Time 459.102 min
  OD600 of P. Aeruginosa PA14: 0.0221
[1]; Time 469.78 min
  OD600 of P. Aeruginosa PA14: 0.0226
[1]; Time 480.457 min
  OD600 of P. Aeruginosa PA14: 0.02355
[1]; Time 491.133 min
  OD600 of P. Aeruginosa PA14: 0.02265
[1]; Time 501.81 min
  OD600 of P. Aeruginosa PA14: 0.02275
[1]; Time 512.487 min
  OD600 of P. Aeruginosa PA14: 0.023
[1]; Time 523.163 min
  OD600 of P. Aeruginosa PA14: 0.02375
[1]; Time 533.84 min
  OD600 of P. Aeruginosa PA14: 0.02255
[1]; Time 544.517 min
  OD600 of P. Aeruginosa PA14: 0.02295
[1]; Time 555.193 min
  OD600 of P. Aeruginosa PA14: 0.0233
[1]; Time 565.87 min
  OD600 of P. Aeruginosa PA14: 0.02345
[1]; Time 576.547 min
  OD600 of P. Aeruginosa PA14: 0.0235
[1]; P. aeruginosa PA14, 0.3 mM TMI, fluorofolin 2× MIC
  rescue of growth inhibition by TMI supplementation: unable to rescue
[2]
  MIC: 6.25 µg/mL
[3]
  MIC: 6.25 µg/mL
[4]
  MIC: 1.5 µg/mL
[5]
  MIC: 1.5 µg/mL
[6]
  MIC: 1.5 µg/mL
[7]
  MIC: 62.5 µg/mL
